Measurements: patent publication US11466025B2, “Thienopyridine derivatives containing unsaturated aliphatic olefinic bond, preparation method and use thereof” (Tianjin Institute of Pharmaceutical Research Co., Ltd., priority 2017, dated 2022)
Like-named read-outs stand apart in the source and are kept apart here.

Key:
[1] = tested on: arteriovenous bypass thrombosis in rats; test: Test of effect of compounds on arteriovenous bypass thrombosis in rats; type: in vivo, SD rats; set-up: Dry weight of thrombus (%): unit not given here; conditions: for ED50: Rattus norvegicus, po; for Inhibition rate (%): dry weight of thrombus; for Dry weight of thrombus (%): loop opened 2.5 h after administration, 15 min
Protocol: Test of Effect of Compounds on Arteriovenous Bypass Thrombosis in Rats
Male SD rats were randomly divided into solvent control group, positive drug control group and test compound group. The solvent control group was administered a corresponding volume of the solvent. […] Rats were anesthetized with 4% chloral hydrate (0.32 g/kg), and fixed on the operating table at the supine position. The right common carotid artery and the left external jugular vein were separated, and was each inserted with a Teflon tube filled with normal saline solution containing heparin (50 U/mL), which were connected through another Teflon tube. A 6 cm long cotton thread was placed at the joints of the two tubes. After 2.5 h of administration, the arteriovenous loop was opened in each group and circulated for 15 min. The blood flow was interrupted, and the cotton thread wrapped with the thrombus was quickly removed and weighed. The weight of the cotton thread was subtracted to obtain the wet weight of the thrombus, and then it was baked in the oven to constant weight and weighed. The weight of the cotton thread was subtracted to obtain the dry weight of the thrombus.

beagle dogs = test: Safety evaluation in multiple dosing (14 days); type: in vivo; conditions: for Drug-related toxicity (appearance, mental activity, appetite, hematological, blood biochemical, ECG): continuous intragastrical administration for 14 days; for ECG examinations, hematological tests and serum biochemical tests: day 7 and 14
Protocol: Safety Evaluation of Compounds I-1 and I-2 in Multiple Dosing:
The test consisted of a physiological control group, a solvent control group, and two administration groups, with 4 animals in each group, half of which were male and the other half of which were female. Two dose groups, 100 mg/kg group and 300 mg/kg group, were set for the test compounds, to which the test compounds at doses of 100 mg/kg and 300 mg/kg were intragastrically administered respectively over 14 days. The solvent control group was administered with an equal volume of the blank solvent. Animals were daily observed for various conditions during the test. ECG examinations were performed before administration, and 7 and 14 days after administration. Hematological and blood biochemical tests were performed before administration and 7 and […] after administration.

[2] = Stability of the compounds under high temperature, high humidity and light (influence factors, HPLC); type: physicochemical
Protocol: Study on the Stability of the Compounds:
The stability of the compound is investigated under the conditions of high temperature, high humidity and light. The testing conditions for high performance liquid chromatography (HPLC) are as follows:
Instrument: high performance liquid chromatography;
Column: Inertsil C8-3, 150 mm×4.6 mm, 5 μm;
Mobile phase A: acetonitrile; mobile phase B: 5 mM ammonium dihydrogen phosphate;
Detection wavelength: 220 nm;
Column temperature: 35° C.;
Sample chamber temperature: 25° C.;
Column: Agilent Poroshell 120 EC-C18, 100 mm×4.6 mm, 2.7 μm;
Column temperature: 30° C.;
Other conditions are the same as that in Method 1.
Samples relating to Compound I-2 were tested using Method 2 and other samples were tested using Method 1. The test results of the influence factors are shown in Table 14, and the test results of the light-avoidance stability test are shown in Table 15.

[3] = Light-avoidance stability test after being packaged with aluminum foil (HPLC); type: physicochemical
Protocol: The stability of the compound is investigated under the conditions of high temperature, high humidity and light. The testing conditions for high performance liquid chromatography (HPLC) are as follows: Samples relating to Compound I-2 were tested using Method 2 and other samples were tested using Method 1. The test results of the influence factors are shown in Table 14, and the test results of the light-avoidance stability test are shown in Table 15.

[4] = intragastric 100 mg/kg over 14 days
[5] = intragastric 300 mg/kg over 14 days
[6] = 5 days, High temperature 60° C.
[7] = 10 days, High temperature 60° C.
[8] = 30 days, High temperature 60° C.
[9] = 5 days, Light (aluminum foil) 4500 ± 500 LX
[10] = 10 days, Light (aluminum foil) 4500 ± 500 LX
[11] = 30 days, Light (aluminum foil) 4500 ± 500 LX

C/C=C/C(=O)Oc1cc2c(s1)CCN([C@H](C(=O)OC)c1ccccc1Cl)C2 [Compound I-1, Methyl (S,E)-2-(2-chlorophenyl)-2-(2-(2-butenoyloxy)-6,7-dihydrothieno[3,2-c]pyridin-5(4H)-yl)-acetate]
ED50 [1]: 7.89 mg/kg
Inhibition rate (%) ([1]; rats, intragastric 1 mg/kg): 18.3%
Inhibition rate (%) ([1]; rats, intragastric 3 mg/kg): 43.2%
Inhibition rate (%) ([1]; rats, intragastric 10 mg/kg): 56.0%
Inhibition rate (%) ([1]; rats, intragastric 30 mg/kg): 64.2%
Dry weight of thrombus (%) ([1]; rats, intragastric 1 mg/kg): 8.3 ± 2.7
Dry weight of thrombus (%) ([1]; rats, intragastric 3 mg/kg): 5.8 ± 1.4
Dry weight of thrombus (%) ([1]; rats, intragastric 10 mg/kg): 4.5 ± 2.4
Dry weight of thrombus (%) ([1]; rats, intragastric 30 mg/kg): 3.6 ± 0.5
Drug-related toxicity (appearance, mental activity, appetite, hematological, blood biochemical, ECG) (beagle dogs): no significant drug-related toxicity
Activities, mental condition and diet (beagle dogs; [4]): normal activities, good mental condition, and normal diet
ECG examinations, hematological tests and serum biochemical tests (beagle dogs; [4]): no obvious abnormalities
Activities, mental condition and diet (beagle dogs; [5]): normal activities, good mental condition, and normal diet
ECG examinations, hematological tests and serum biochemical tests (beagle dogs; [5]): no obvious abnormalities
Chromatographic purity % ([2]; 0 day, 0point): 99.612%
Individual maximum impurity % ([2]; 0 day, 0point): 0.236%
Chromatographic purity % ([2]; 5 days, High humidity RH92.5%): 99.583%
Individual maximum impurity % ([2]; 5 days, High humidity RH92.5%): 0.235%
Chromatographic purity % [2, 6]: 99.595%
Individual maximum impurity % [2, 6]: 0.234%
Chromatographic purity % ([2]; 5 days, Light 4500 ± 500 LX): 99.539%
Individual maximum impurity % ([2]; 5 days, Light 4500 ± 500 LX): 0.287%
Chromatographic purity % ([2]; 10 days, High humidity RH92.5%): 99.578%
Individual maximum impurity % ([2]; 10 days, High humidity RH92.5%): 0.234%
Chromatographic purity % [2, 7]: 99.596%
Individual maximum impurity % [2, 7]: 0.232%
Chromatographic purity % ([2]; 10 days, Light 4500 ± 500 LX): 99.502%
Individual maximum impurity % ([2]; 10 days, Light 4500 ± 500 LX): 0.313%
Chromatographic purity % ([2]; 30 days, High humidity RH92.5%): 99.544%
Individual maximum impurity % ([2]; 30 days, High humidity RH92.5%): 0.235%
Chromatographic purity % [2, 8]: 99.570%
Individual maximum impurity % [2, 8]: 0.237%
Chromatographic purity % ([2]; 30 days, Light 4500 ± 500 LX): 98.868%
Individual maximum impurity % ([2]; 30 days, Light 4500 ± 500 LX): 0.698%
Chromatographic purity % ([3]; 0 day, 0point): 99.612%
Individual maximum impurity % ([3]; 0 day, 0point): 0.236%
Chromatographic purity % [3, 9]: 99.598%
Individual maximum impurity % [3, 9]: 0.242%
Chromatographic purity % [3, 10]: 99.565%
Individual maximum impurity % [3, 10]: 0.243%
Chromatographic purity % [3, 11]: 99.555%
Individual maximum impurity % [3, 11]: 0.242%

C/C=C/C=C/C(=O)Oc1cc2c(s1)CCN([C@H](C(=O)OC)c1ccccc1Cl)C2 [Compound I-2, Methyl (S)-2-(2-chlorophenyl)-2-(2-((2E,4E)-2,4-hexadienoyloxy)-6,7-dihydrothieno[3,2-c]pyridin-5(4H)-yl)-acetate]
ED50 ([1]; dry weight of thrombus from arteriovenous bypass, rats, intragastric, read-out: ED50): 5.86 mg/kg
Inhibition rate (%) ([1]; rats, intragastric 1 mg/kg): 36.5%
Inhibition rate (%) ([1]; rats, intragastric 3 mg/kg): 40.3%
Inhibition rate (%) ([1]; rats, intragastric 10 mg/kg): 52.1%
Inhibition rate (%) ([1]; rats, intragastric 30 mg/kg): 68.6%
Dry weight of thrombus (%) ([1]; rats, intragastric 1 mg/kg): 6.4 ± 3.6
Dry weight of thrombus (%) ([1]; rats, intragastric 3 mg/kg): 6.1 ± 2.9
Dry weight of thrombus (%) ([1]; rats, intragastric 10 mg/kg): 4.9 ± 2.3
Dry weight of thrombus (%) ([1]; rats, intragastric 30 mg/kg): 3.2 ± 1.5
Drug-related toxicity (appearance, mental activity, appetite, hematological, blood biochemical, ECG) (beagle dogs): no significant drug-related toxicity
Activities, mental condition and diet (beagle dogs; [4]): normal activities, good mental condition, and normal diet
ECG examinations, hematological tests and serum biochemical tests (beagle dogs; [4]): no obvious abnormalities
Activities, mental condition and diet (beagle dogs; [5]): normal activities, good mental condition, and normal diet
ECG examinations, hematological tests and serum biochemical tests (beagle dogs; [5]): no obvious abnormalities
Chromatographic purity % ([2]; 0 day, 0point): 98.879%
Isomer % ([2]; 0 day, 0point): 0.705%
Chromatographic purity % ([2]; 5 days, High humidity RH92.5%): 98.897%
Isomer % ([2]; 5 days, High humidity RH92.5%): 0.707%
Chromatographic purity % [2, 6]: 98.840%
Isomer % [2, 6]: 0.696%
Chromatographic purity % ([2]; 5 days, Light 4500 ± 500 LX): 98.853%
Isomer % ([2]; 5 days, Light 4500 ± 500 LX): 0.699%
Chromatographic purity % ([2]; 10 days, High humidity RH92.5%): 98.882%
Isomer % ([2]; 10 days, High humidity RH92.5%): 0.708%
Chromatographic purity % [2, 7]: 98.930%
Isomer % [2, 7]: 0.692%
Chromatographic purity % ([2]; 10 days, Light 4500 ± 500 LX): 98.756%
Isomer % ([2]; 10 days, Light 4500 ± 500 LX): 0.712%
Chromatographic purity % ([2]; 30 days, High humidity RH92.5%): 98.885%
Isomer % ([2]; 30 days, High humidity RH92.5%): 0.704%
Chromatographic purity % [2, 8]: 98.936%
Isomer % [2, 8]: 0.683%
Chromatographic purity % ([2]; 30 days, Light 4500 ± 500 LX): 95.099%
Isomer % ([2]; 30 days, Light 4500 ± 500 LX): 0.695%
Chromatographic purity % ([3]; 0 day, 0point): 98.879%
Individual maximum impurity % ([3]; 0 day, 0point): 0.705%
Chromatographic purity % [3, 9]: 98.348%
Individual maximum impurity % [3, 9]: 0.699%
Chromatographic purity % [3, 10]: 98.544%
Individual maximum impurity % [3, 10]: 0.699%
Chromatographic purity % [3, 11]: 98.434%
Individual maximum impurity % [3, 11]: 0.696%
